A value given as a limit tells only on which side of the number the result lay.

T1 sequence (O75874 whole entry R132H): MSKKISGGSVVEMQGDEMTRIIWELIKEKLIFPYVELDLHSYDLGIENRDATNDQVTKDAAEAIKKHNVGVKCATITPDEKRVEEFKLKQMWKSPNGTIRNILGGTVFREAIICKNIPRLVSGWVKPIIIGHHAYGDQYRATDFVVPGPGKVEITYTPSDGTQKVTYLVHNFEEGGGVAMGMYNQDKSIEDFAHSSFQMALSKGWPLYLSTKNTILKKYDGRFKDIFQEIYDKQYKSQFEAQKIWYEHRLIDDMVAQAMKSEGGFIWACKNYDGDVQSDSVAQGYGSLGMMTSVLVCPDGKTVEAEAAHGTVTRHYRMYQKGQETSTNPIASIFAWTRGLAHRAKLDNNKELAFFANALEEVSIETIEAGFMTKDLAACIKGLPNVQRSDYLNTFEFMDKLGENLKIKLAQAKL

This assay concerns the target T1, IDH1 mutant (R132H) (Homo sapiens, UniProt O75874, R132H).
T1 construct: purchased BPS Bioscience 71099-2
Description: Mutant IDH1-R132H Fluorescence Assay (Resazurin based). The class given is biochemical. The settings on record: 10 nM IDH1 R132H, 4 mM α-ketoglutarate, NADPH, 1.5 h at room temperature. As for the experimental part: IC50 values of compounds against IDH1 mutant (R132H) was determined by Resazurin based Fluorescence assay. Assays were performed in Buffer (25 mM Tris HCl, 150 mM NaCl, 10 mM MgCl2, 0.03% BSA, 2 mM 1-mercaptoethanol) where total reaction volume was 12.5 μL in low-volume 384-well plates (Cat #4511, Corning). Serially diluted compounds (3-fold) were incubated with cocktail of α-ketoglutarate (4 mM; Cat #75892-25G, Sigma), NADPH ([…]; Cat # N1630-100MG, Sigma) and buffer for 5 min, following IDH1 R132H mutant (10 nM; Cat #71099-2, BPS Bioscience) was added and incubated in dark at room temperature for 1.5 h. After 1.5 h, 6.25 μL detection solution containing Resazurin ([…]; (Cat #62758-13-8, Sigma) and Diaphorase (40 ug/ml; Cat # D2197-300UN, Sigma) in buffer was added and incubated for 15 min. Readings were taken in a Synergy Neo Plate reader (BioTek, Winooski) at single excitation of 540 nm and emission at 590 nm respectively.
The % (percent) activity of test samples was calculated as (Sample−Min)×100/(Max−Min). [Max: DMSO control, complete reaction with enzyme with DMSO and Min: No enzyme with DMSO]. Percent inhibition (100−% activity) was fitted to the “four-parameter logistic model” in XLfit for determination of IC50 values.
For `CC[C@H]1COC(=O)N1c1nc(C)nc(N[C@@H](C)c2ccc(OCc3ccccn3)cc2)n1` [Compound 1.62, (S)-4-ethyl-3-(4-methyl-6-((S)-1-(4-(pyridin-2-ylmethoxy)phenyl)ethylamino)-1,3,5-triazin-2-yl)oxazolidin-2-one], the IC50 came out at 3.29 µM.
To `CC[C@H]1COC(=O)N1c1nc(C)nc(N[C@@H](C)c2cc3cc(C)ccc3[nH]c2=O)n1` [Compound 1.108, (S)-4-ethyl-3-(4-methyl-6-((S)-1-(6-methyl-2-oxo-1,2-dihydroquinolin-3-yl)ethylamino)-1,3,5-triazin-2-yl)oxazolidin-2-one] belongs 1.27 µM.
To `CC[C@H]1COC(=O)N1c1nc(C)nc(N[C@H](C)c2ccc(C(=O)Nc3ccccc3)cc2)n1` [Compound 1.102, 4-((R)-1-(4-((S)-4-ethyl-2-oxooxazolidin-3-yl)-6-methyl-1,3,5-triazin-2-ylamino)ethyl)-N-phenylbenzamide] belongs greater than 30 µM; to `CC[C@H]1COC(=O)N1c1nc(C)nc(N[C@H](C)c2cc3cc(Cl)ccc3[nH]c2=O)n1` [Compound 1.39, (S)-3-(4-((R)-1-(6-chloro-2-oxo-1,2-dihydroquinolin-3-yl)ethylamino)-6-methyl-1,3,5-triazin-2-yl)-4-ethyloxazolidin-2-one], greater than 30 µM; to `CC[C@H]1COC(=O)N1c1nc(C)nc(N[C@H](C)c2cc3cc(-c4ccc(Cl)cc4)ccc3[nH]c2=O)n1` [Compound 1.107, (S)-3-(4-((R)-1-(6-(4-chlorophenyl)-2-oxo-1,2-dihydroquinolin-3-yl)ethylamino)-6-methyl-1,3,5-triazin-2-yl)-4-ethyloxazolidin-2-one], greater than 30 µM.
For `C[C@@H](Nc1ncnc(N2C(=O)OC[C@@H]2C)n1)c1ccc(Oc2ccccc2)cc1` [Compound 1.17, (S)-4-methyl-3-(4-((R)-1-(4-phenoxyphenyl)ethylamino)-1,3,5-triazin-2-yl)oxazolidin-2-one], the IC50 is greater than 30 µM.
Then `CC[C@H]1COC(=O)N1c1nc(C)nc(N[C@@H](C)c2cc3cc(OC)ccc3[nH]c2=O)n1` [Compound 1.55, (S)-4-ethyl-3-(4-((S)-1-(6-methoxy-2-oxo-1,2-dihydroquinolin-3-yl)ethylamino)-6-methyl-1,3,5-triazin-2-yl)oxazolidin-2-one], with 1.25 µM.
Then `CC[C@H]1COC(=O)N1c1nc(C)nc(N[C@@H](C)c2ccc(Cc3ccccc3)cc2)n1` [Compound 1.95, (S)-3-(4-((S)-1-(4-benzylphenyl)ethylamino)-6-methyl-1,3,5-triazin-2-yl)-4-ethyloxazolidin-2-one], with 2.64 µM.
Take `CC[C@H]1COC(=O)N1c1nc(C)nc(N[C@@H](C)c2ccc(Oc3ccccc3)nc2)n1` [Compound 1.77, (S)-4-ethyl-3-(4-methyl-6-((S)-1-(6-phenoxypyridin-3-yl)ethylamino)-1,3,5-triazin-2-yl)oxazolidin-2-one]: the IC50 amounted to 5.95 µM.
To `CC[C@H]1COC(=O)N1c1nc(C)nc(N[C@@H](C)c2cc3cc(-c4ccc(Cl)cc4)ccc3[nH]c2=O)n1` [Compound 1.106, (S)-3-(4-((S)-1-(6-(4-chlorophenyl)-2-oxo-1,2-dihydroquinolin-3-yl)ethylamino)-6-methyl-1,3,5-triazin-2-yl)-4-ethyloxazolidin-2-one] belongs greater than 30 µM; to `CC[C@H]1COC(=O)N1c1nc(C)nc(N[C@H](C)c2cc3cc(OC)ccc3[nH]c2=O)n1` [Compound 1.56, (S)-4-ethyl-3-(4-((R)-1-(6-methoxy-2-oxo-1,2-dihydroquinolin-3-yl)ethylamino)-6-methyl-1,3,5-triazin-2-yl)oxazolidin-2-one], greater than 30 µM; to `CC(C)[C@H]1COC(=O)N1c1ncnc(N[C@@H](C)c2ccccn2)n1` [Compound 1.30, (S)-4-isopropyl-3-(4-((S)-1-(pyridin-2-yl)ethylamino)-1,3,5-triazin-2-yl)oxazolidin-2-one], greater than 30 µM.
To `CC[C@H]1COC(=O)N1c1nc(C)nc(N[C@@H](C)c2ccc(Oc3cccnc3)cc2)n1` [Compound 1.74, (S)-4-ethyl-3-(4-methyl-6-((S)-1-(4-(pyridin-3-yloxy)phenyl)ethylamino)-1,3,5-triazin-2-yl)oxazolidin-2-one] belongs greater than 30 µM; to `CC[C@H]1COC(=O)N1c1nc(C)nc(N[C@@H](C)c2ccc3c(-c4ccccc4)c[nH]c3c2)n1` [Compound 1.100, (S)-4-ethyl-3-(4-methyl-6-((S)-1-(3-phenyl-1H-indol-6-yl)ethylamino)-1,3,5-triazin-2-yl)oxazolidin-2-one], 2.24 µM.
Then `CC[C@H]1COC(=O)N1c1nc(C)nc(N[C@H](C)c2cc3ccccc3[nH]c2=O)n1` [Compound 1.46, (S)-4-ethyl-3-(4-methyl-6-((R)-1-(2-oxo-1,2-dihydroquinolin-3-yl)ethylamino)-1,3,5-triazin-2-yl) oxazolidin-2-one], with greater than 30 µM; and `CC[C@H]1COC(=O)N1c1nc(C)nc(N[C@@H](C)c2ccc(-c3ccc(F)c(C)c3)cn2)n1` [Compound 1.68, (S)-4-ethyl-3-(4-((S)-1-(5-(4-fluoro-3-methylphenyl)pyridin-2-yl)ethylamino)-6-methyl-1,3,5-triazin-2-yl)oxazolidin-2-one], with 1.58 µM.
With `CC[C@H]1COC(=O)N1c1nc(C)nc(N[C@H](C)c2ccc(CN3CCN(C(C)=O)CC3)cc2)n1` [Compound 1.99, (S)-3-(4-((R)-1-(4-((4-acetylpiperazin-1-yl)methyl)phenyl)ethylamino)-6-methyl-1,3,5-triazin-2-yl)-4-ethyloxazolidin-2-one], the IC50 was greater than 30 µM.
For `CC[C@H]1COC(=O)N1c1nc(C)nc(N[C@@H](C)c2ccc(OCc3ccccc3)cc2)n1` [Compound 1.73, (S)-3-(4-((S)-1-(4-(benzyloxy)phenyl)ethylamino)-6-methyl-1,3,5-triazin-2-yl)-4-ethyloxazolidin-2-one], the IC50 worked out at 15.4 µM.
To `CC[C@H]1COC(=O)N1c1nc(C)nc(N[C@H](C)c2ccc(Oc3ccc(Cl)cc3)c(C)n2)n1` [Compound 1.97, (S)-3-(4-((R)-1-(5-(4-chlorophenoxy)-6-methylpyridin-2-yl)ethylamino)-6-methyl-1,3,5-triazin-2-yl)-4-ethyloxazolidin-2-one] belongs greater than 30 µM; to `CC[C@H]1COC(=O)N1c1nc(C)nc(N[C@@H](C)c2ccc(C(=O)Nc3ccccc3)cc2)n1` [Compound 1.103, 4-((S)-1-(4-((S)-4-ethyl-2-oxooxazolidin-3-yl)-6-methyl-1,3,5-triazin-2-ylamino)ethyl)-N-phenylbenzamide], greater than 30 µM; to `CC[C@H]1COC(=O)N1c1nc(C)nc(N[C@H](C)c2ccc(Oc3ccc(F)cc3Br)cc2)n1` [Compound 1.79, (S)-3-(4-((R)-1-(4-(2-bromo-4-fluorophenoxy)phenyl)ethylamino)-6-methyl-1,3,5-triazin-2-yl)-4-ethyloxazolidin-2-one], 2.72 µM.
To `CC[C@H]1COC(=O)N1c1nc(C)nc(N[C@H](C)c2cc3cc(Cl)c(OC)cc3[nH]c2=O)n1` [Compound 1.43, (S)-3-(4-((R)-1-(6-chloro-7-methoxy-2-oxo-1,2-dihydroquinolin-3-yl)ethylamino)-6-methyl-1,3,5-triazin-2-yl)-4-ethyloxazolidin-2-one] belongs 6.83 µM; to `CC[C@H]1COC(=O)N1c1nc(C)nc(N[C@H](C)c2cc3cc(Br)ccc3[nH]c2=O)n1` [Compound 1.67, (S)-3-(4-((R)-1-(6-bromo-2-oxo-1,2-dihydroquinolin-3-yl)ethylamino)-6-methyl-1,3,5-triazin-2-yl)-4-ethyloxazolidin-2-one], 12.3 µM; to `CC(C)[C@H]1COC(=O)N1c1ncnc(N[C@H](C)c2ccc(Oc3ccccc3)cn2)n1` [Compound 1.18, (S)-4-isopropyl-3-(4-((R)-1-(5-phenoxypyridin-2-yl)ethylamino)-1,3,5-triazin-2-yl)oxazolidin-2-one], greater than 30 µM.
Then `CC[C@H]1COC(=O)N1c1nc(C)nc(N[C@@H](C)c2ccc(Oc3ccc(Cl)cc3)nc2OC)n1` [Compound 1.87, (S)-3-(4-((S)-1-(6-(4-chlorophenoxy)-2-methoxypyridin-3-yl)ethylamino)-6-methyl-1,3,5-triazin-2-yl)-4-ethyloxazolidin-2-one], with 8.82 µM.
In the case of `CC[C@H]1COC(=O)N1c1nc(N[C@@H](C)c2ccc(Oc3ccccc3)cc2)nc(C2CC2)n1` [Compound 1.71, (S)-3-(4-cyclopropyl-6-((S)-1-(4-phenoxyphenyl)ethylamino)-1,3,5-triazin-2-yl)-4-ethyloxazolidin-2-one], the IC50 worked out at 2.44 µM.
As to `CC(C)[C@H]1COC(=O)N1c1ncnc(N[C@H](C)c2cn(-c3ccc(Cl)cc3)cn2)n1` [Compound 1.14, (S)-3-(4-((R)-1-(1-(4-chlorophenyl)-1H-imidazol-4-yl)ethylamino)-1,3,5-triazin-2-yl)-4-isopropyloxazolidin-2-one], the IC50 was 24.5 µM.
To `CC[C@H]1COC(=O)N1c1nc(C)nc(NC(C)c2cn(-c3ccc(Cl)cc3)cn2)n1` (single isomer, unassigned) [Compound 1.51] belongs greater than 22.9 µM.
